pKi: −log10 of the molar value.
Key:
human thrombin = target: T1, human thrombin (Homo sapiens, UniProt P00734); assay: Determination of the inhibition constants (Ki) for thrombin, chromogenic substrate S-2238; type: biochemical; details: 100 pM human thrombin, pH 7.8, 37° C., 10 minutes preincubation, tight-binding evaluation
T1 construct: By proteolysis the proenzyme prothrombin is converted into thrombin
Description: The inhibition constants (Ki) of the compounds of the formula I were determined in established enzyme-kinetic procedures. […] Inhibitor and enzyme were preincubated for 10 minutes, and the reaction was started by addition of the chromogenic substrate S2238. For the evaluation of the kinetics, the mathematical algorithm for tight-binding was used, which gave Ki values and the inhibition type with the aid of non-linear regression.

[1] = target: T2, trypsin from bovine pancreas (Bos taurus, UniProt P00760); assay: Determination of the specificity of the inhibitors: Ki of trypsin, substrate Chromozyme TRY; type: biochemical; details: for pKi: 0.5 nM bovine pancreas trypsin, pH 7.8, 37° C., 10 minute preincubation; for Specificity Try/Thr: ratio Ki trypsin / Ki thrombin
T2 construct: from tissue; host or cells: bovine pancreas
T2 sequence (P00760 24-246): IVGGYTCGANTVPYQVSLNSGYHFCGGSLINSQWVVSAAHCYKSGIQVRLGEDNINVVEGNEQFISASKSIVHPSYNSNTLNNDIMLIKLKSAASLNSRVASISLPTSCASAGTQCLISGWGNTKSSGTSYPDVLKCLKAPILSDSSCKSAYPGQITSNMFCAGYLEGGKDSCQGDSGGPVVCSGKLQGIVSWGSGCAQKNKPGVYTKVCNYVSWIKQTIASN
Description: The specificity of the inhibitors towards thrombin and trypsin was determined. The Ki of trypsin was determined in an analogous manner to the determination of the Ki of thrombin. The reaction mixture was composed as follows--buffer: 200 mM triethanolamine, 20 mM CaCl2, pH 7.8; 37° C.; enzyme: 0.5 nM trypsin from bovine pancreas; substrate: 500 μM carbobenzoxy-L-valyl-glycyl-L-arginine-4-nitranilide (Chromozyme TRY, from Boehringer Mannheim). The enzymatic reaction was started after a 10 minute preincubation by addition of the substrate.

CD rats = assay: Determination of the acute toxicity; type: in vivo, rat; details: i.v., survival on day 1, Litchfield & Wilcoxon method
Description: To determine the acute toxicity, CD rats were injected i.v. on day 0 with different doses of the test substance dissolved in 0.5 mL of physiol. NaCl solution. Control groups received only 0.5 mL of physiol. NaCl solution. 2 rats were used per concentration of the test substance. The number of rats surviving on day 1 was determined and the LD5, LD50 and LD95 were calculated by the Litchfield & Wilcoxon method. […] The results are summarized in Table I. Pharmacological data and activities of some selected compounds: […]

thrombin = details: cited from earlier work

SMILES | pKi (human thrombin) | pKi [1] | Specificity Try/Thr [1] | LD50 (rat) (CD rats) [mg/kg] | specificity for thrombin (thrombin)
COC(=O)C1OC(NC(=O)C[C@H](NS(=O)(=O)c2c(C)cc(OC)c(C)c2C)C(=O)N[C@H](Cc2ccc(C(=N)N)cc2)C(=O)N2CCCCC2)C(OC(C)=O)C(OC(C)=O)C1OC(C)=O.Cl (stereo partly drawn) [Compound 24, 2-N-(4-Methoxy-2,3,6-trimethyl-benzenesulfonyl)-4-N-[methyl (2,3,4-tri-O-acetyl-β-D-glucopyranosyl)uronate]-L-asparaginyl-4-amidino-D-phenylalanine-piperidide hydrochloride] | 9.10 | 6.64 | 289 | 46 | 
COc1cc(C)c(S(=O)(=O)N[C@@H](CC(=O)N[C@@H]2O[C@H](COC(C)=O)[C@@H](OC(C)=O)[C@H](OC(C)=O)[C@H]2OC(C)=O)C(=O)N[C@H](Cc2ccc(C(=N)N)cc2)C(=O)N2CCCCC2)c(C)c1C.Cl [Compound 25, 2-N-(4-Methoxy-2,3,6-trimethyl-benzenesulfonyl)-4-N-(2,3,4,6-tetra-O-acetyl-β-D-glucopyranosyl)-L-asparaginyl-4-amidino-D-phenylalanine-piperidide hydrochloride] | 8.62 | 6.55 | 118 | 55 | 
COc1cc(C)c(S(=O)(=O)N[C@@H](CC(=O)N[C@@H]2O[C@H](C(=O)O)[C@@H](O)[C@H](O)[C@H]2O)C(=O)N[C@H](Cc2ccc(C(=N)N)cc2)C(=O)N2CCCCC2)c(C)c1C.Cl [Compound 30, 2-N-(4-Methoxy-2,3,6-trimethyl-benzenesulfonyl)-4-N-[(β-D-glucopyranosyl)-uronic acid]-L-asparaginyl-4-amidino-D-phenylalanine-piperidide hydrochloride] | 10.07 | 6.46 | 4106 | 51 | 
COc1cc(C)c(S(=O)(=O)N[C@@H](CC(=O)N[C@@H]2O[C@H](CO)[C@@H](O)[C@H](O)[C@H]2O)C(=O)N[C@H](Cc2ccc(C(=N)N)cc2)C(=O)N2CCCCC2)c(C)c1C.Cl [Compound 31, 2-N-(4-Methoxy-2,3,6-trimethyl-benzenesulfonyl)-4-N-[(β-D-glucopyranosyl)-L-asparaginyl-4-amidino-D-phenylalanine-piperidide hydrochloride] | 10.12 | 6.30 |  |  | 
COc1cc(C)c(S(=O)(=O)N[C@@H](CC(=O)N[C@@H]2O[C@H](CO)[C@@H](O)[C@H](O)[C@H]2O)C(=O)N[C@H](Cc2ccc(C(=N)N)cc2)C(=O)N2CCCCC2)c(C)c1C.Cl [Compound 31] |  |  | 6680 | 45 | 
COc1cc(C)c(S(=O)(=O)N[C@@H](CC(=O)N[C@@H]2O[C@H](CO)[C@@H](O)[C@H](O)[C@H]2NC(C)=O)C(=O)N[C@H](Cc2ccc(C(=N)N)cc2)C(=O)N2CCCCC2)c(C)c1C.Cl [Compound 32, 2-N-(4-Methoxy-2,3,6-trimethyl-benzenesulfonyl)-4-N-(2-acetamido-2-deoxy-β-D-glucopyranosyl)-L-asparaginyl-4-amidino-D-phenylalanine-piperidide hydrochloride] | 8.96 | 6.28 | 480 | 53 | 
COc1cc(C)c(S(=O)(=O)N[C@@H](CC(=O)N[C@@H]2O[C@H](CO)[C@H](O)[C@H](O)[C@H]2O)C(=O)N[C@H](Cc2ccc(C(=N)N)cc2)C(=O)N2CCCCC2)c(C)c1C.Cl [Compound 41, 2-N-(4-Methoxy-2,3,6-trimethyl-benzenesulfonyl)-4-N-(β-D-galactopyranosyl)-L-asparaginyl-4-amidino-D-phenylalanine-piperidide hydrochloride] | 10.40 | 6.43 | 9375 | 50 | 
COc1cc(C)c(S(=O)(=O)N[C@@H](CO[C@@H]2OC[C@@H](O)[C@@H](O)[C@H]2O)C(=O)N[C@H](Cc2ccc(C(=N)N)cc2)C(=O)N2CCCCC2)c(C)c1C.I [Compound 42, 2-N-(4-Methoxy-2,3,6-trimethyl-benzenesulfonyl)-3-O-(β-D-ribo-pyranosyl)-L-seryl-4-amidino-D-phenylalanine-piperidide hydroiodide] | 8.89 | 6.19 | 500 | 60 | 
COc1cc(C)c(S(=O)(=O)N[C@@H](CC(=O)O)C(=O)N[C@H](Cc2ccc(C(=N)N)cc2)C(=O)N2CCCCC2)c(C)c1C.Cl [Compound 43, 2-N-(4-Methoxy-2,3,6-trimethyl-benzenesulfonyl)-L-Asp-4-amidino-D-phenylalanine-piperidide×HCl] | 8.82 | 6.73 | 125 | 62 | 
COc1cc(C)c(S(=O)(=O)N[C@@H](CC(=O)N[C@H]2O[C@@H](C)[C@@H](O)[C@@H](O)[C@@H]2O)C(=O)N[C@H](Cc2ccc(C(=N)N)cc2)C(=O)N2CCCCC2)c(C)c1C.Cl [Compound 49, 2-N-(4-Methoxy-2,3,6-trimethyl-benzenesulfonyl)-4-N-(β-L-fucopyranosyl)-L-aspaginyl-4-amidino-D-phenylalanine-piperidide hydrochloride] | 10.00 | 6.27 | 5310 | 52 | 
COc1cc(C)c(S(=O)(=O)N[C@@H](CC(=O)N[C@@H]2O[C@H](CO)[C@H](O)[C@H](O)[C@H]2NC(C)=O)C(=O)N[C@H](Cc2ccc(C(=N)N)cc2)C(=O)N2CCCCC2)c(C)c1C.Cl [Compound 50, 2-N-(4-Methoxy-2,3,6-trimethyl-benzenesulfonyl)-4-N-(2-acetamido-2-deoxy-β-D-galactopyranosyl)-L-asparaginyl-4-amidino-D-phenylalanine-piperididehydrochloride] | 8.68 | 6.22 | 289 | 64 | 
N=C(N)c1ccc(CC(NC(=O)CNS(=O)(=O)c2ccc3ccccc3c2)C(=O)N2CCCCC2)cc1 (centres unmarked) [NAPAP, 2-N-(2-naphthalenesulfonylglycyl)-4-amidino-phenylalaninc piperidide] |  |  |  |  | too low

— patent publication US5556941A, “Glycopeptide derivatives, a process for their preparation and pharmaceutical agents containing these compounds” (Behringwerke Aktiengesellschaft, priority 1992, dated 1996)
